# Measurements published in patent publication US9133232B2, “Fused pentacyclic polyethers” (priority 2003, dated 2015).
# Like-named read-outs stand apart in the source and are kept apart here.
# Key:
# Male mosquito fish = format: in vivo; details: for death of fish exposed to brevenal alone: monitored 24 h
# Method: Male mosquito fish (n=104) were used in this assay. Fish were placed individually in 50 mL beakers containing 20 mL water. The test compounds (PbTx-2 and brevenal) were dissolved in EtOH at a concentration of 0.1 mg/mL and added to the fish in a total of 200 μL EtOH. The control fish received 200 uL EtOH. Fish were exposed to toxin alone (1 μg/mL water), brevenal alone (1 or 2 μg/mL water), or both brevenal (1.0 μg/mL water and toxin (1.0 μg/mL water) with the brevenal being added 3 min. before the toxin. After addition of the difference compounds the fish were monitored for 24 h. or until the time of death. Significant differences were determined using a two-way Student's t-test.
# rat brain synaptosome = assay: Competitive rat brain synaptosome assay (displacement of tritiated brevetoxin PbTx-2); format: binding; details: for Ki / EC50: competition with tritiated PbTx-2; for EC50: read-out: approximate EC50; for displacement of tritiated brevetoxin PbTx-2: compound added at about 1000× the concentration of the tritiated PbTx-2
# Method: Competitive rat brain synaptosome assays were performed as described in Poli et al., 1986. […];
Compound,"time of death after exposure, fish given brevenal and PbTx-2 (Male mosquito fish; brevenal 1.0 μg/mL water added 3 min. before PbTx-2 1.0 μg/mL water)",prolonging of life versus PbTx-2 only (Male mosquito fish; brevenal 1.0 μg/mL water added 3 min. before an equal concentration of PbTx-2) [fold],death of fish exposed to brevenal alone (Male mosquito fish; brevenal alone 1 μg/ml water),death of fish exposed to brevenal alone (Male mosquito fish; brevenal alone 2 μg/ml water),Ki (rat brain synaptosome) [nM],EC50 (rat brain synaptosome) [nM],displacement of tritiated brevetoxin PbTx-2 (rat brain synaptosome) [%]
C=C/C=C\CC[C@H]1O[C@H]2CC[C@@]3(C)O[C@H]4[C@@H](O)C[C@@]5(C)O[C@@H](CC/C=C(C)/C(C)=C/C=O)[C@@H](C)C[C@@H]5O[C@@H]4C[C@@H]3O[C@@H]2CC[C@@]1(C)O [brevenal],about 17 min.,~2.5,did not die after 24 h,did not die after 24 h,1860,~3690,~80
di-O-Me brevenal,,,,,680,~1350,~80
